Experimental data: patent US6358885B1, “Substituted phenylheterocyclic herbicides” (Mississippi State University, priority 1992, dated 2002)

Key:
pigweed = test: Test C preemergence/postemergence greenhouse plant response rating 0 to 100; assay type: in vivo, Amaranthusretroflexus; settings: for Plant response rating Pigweed: 62 g/ha, 0 to 100 scale
How it was run: (§1)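 Compounds in non-phytotoxic solvent went onto sandy loam before emergence (seeded one day earlier) or onto plants at the one-to-four leaf stage. Duck salad was treated via flood water (~2.5 cm, maintained) over silt loam.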

duck salad = test: Test C flood test plant response rating 0 to 100; assay type: in vivo, Heteranthera limosa
How it was run: as §1

cotton [1] = test: Test C preemergence/postemergence greenhouse plant response rating 0 to 100; assay type: in vivo, Gossypium hirsutum; settings: for Plant response rating, Cotton: 62 g/ha, 0 to 100 scale
How it was run: as §1

cheatgrass = test: Test B preemergence/postemergence greenhouse plant response rating 0 to 10; assay type: in vivo, Bromus secalinus; settings: 0 to 10 scale
How it was run: (§2)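 Test chemicals, dissolved in a non-phytotoxic solvent, were applied to soil at planting and, at the same time, over foliage of seedlings at the one to four leaf stage.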

cotton [2] = test: as above; assay type: in vivo, Gossypium hirsutum; settings: 0 to 10 scale
How it was run: as §2

crabgrass = test: as above; assay type: in vivo, Digitaria spp.; settings: 0 to 10 scale
How it was run: as §2

morningglory = test: as above; assay type: in vivo, Ipomoea hederacea; settings: 0 to 10 scale
How it was run: as §2

cocklebur = test: as above; assay type: in vivo, Xanthium pensylvanicum; settings: 0 to 10 scale
How it was run: as §2

giant foxtail [3] = test: Test C preemergence/postemergence greenhouse plant response rating 0 to 100; assay type: in vivo, Setaria faberii; settings: for Plant response rating, Giant foxtail: 62 g/ha, 0 to 100 scale
How it was run: as §1

umbrella sedge = test: Test C flood test plant response rating 0 to 100; assay type: in vivo, Cyperus difformis
How it was run: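 Compounds in non-phytotoxic solvent applied preemergence to sandy loam one day after planting, postemergence at the 1–4 leaf stage, or to ~2.5 cm floodwater over silt loam.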

rape = test: Test B preemergence/postemergence greenhouse plant response rating 0 to 10; assay type: in vivo, Brassica napus; settings: 0 to 10 scale
How it was run: as §2

lambsquarters = test: Test C preemergence/postemergence greenhouse plant response rating 0 to 100; assay type: in vivo, Chenopodium album; settings: for Plant response rating Lambsquarters: 62 g/ha, 0 to 100 scale
How it was run: as §1

bedstraw = test: Test B preemergence/postemergence greenhouse plant response rating 0 to 10; assay type: in vivo, Galium aparine; settings: 0 to 10 scale
How it was run: as §2

chickweed = test: Test C preemergence/postemergence greenhouse plant response rating 0 to 100; assay type: in vivo, Stellaria media; settings: for Plant response rating, Chickweed: 62 g/ha, 0 to 100 scale
How it was run: as §1

barley = test: as above; assay type: in vivo, Hordeum vulgare; settings: for Plant response rating Barley Igri: 62 g/ha, 0 to 100 scale
How it was run: as §1

velvetleaf = test: as above; assay type: in vivo, Abutilon theophrasti
How it was run: as §1

soybean = test: as above; assay type: in vivo, Glycine max
How it was run: as §1

giant foxtail [4] = test: Test B preemergence/postemergence greenhouse plant response rating 0 to 10; assay type: in vivo, Setaria faberii; settings: 0 to 10 scale
How it was run: as §2

[5] = POSTEMERGENCE section, flood test, Rate 1 g/ha
[6] = POSTEMERGENCE section, flood test, Rate 4 g/ha
[7] = Rate 16 g/ha, under POSTEMERGENCE head (flood test species)
[8] = flood test species listed under POSTEMERGENCE, 62 g/ha, 0 to 100 scale
[9] = POSTEMERGENCE, 62 g/ha, 0 to 100 scale

SMILES: CCN1C(=O)COc2cc(F)c(-c3nn4c(c3Cl)CCCC4)cc21 [Compound 54]
- Plant response rating Pigweed (pigweed; POSTEMERGENCE): 100
- Plant response rating (0 to 100), Pigweed (pigweed; POSTEMERGENCE, Rate 1 g/ha): 95
- Plant response rating (0 to 100), Pigweed (pigweed; POSTEMERGENCE, Rate 4 g/ha): 100
- Plant response rating Pigweed (pigweed; PREEMERGENCE): 100
- Plant response rating (0 to 100), Pigweed (pigweed; PREEMERGENCE, Rate 1 g/ha): 0
- Plant response rating (0 to 100), Pigweed (pigweed; PREEMERGENCE, Rate 4 g/ha): 90
- Plant response rating (0 to 100), Pigweed (pigweed; Rate 16 g/ha, POSTEMERGENCE): 100
- Plant response rating (0 to 100), Pigweed (pigweed; Rate 16 g/ha, PREEMERGENCE): 100
- Plant response rating (0 to 100), Duck salad (duck salad; [5]): 0
- Plant response rating (0 to 100), Duck salad (duck salad; [6]): 0
- Plant response rating (0 to 100), Duck salad (duck salad; [7]): 35
- Plant response rating Duck salad (duck salad; [8]): 100
- Plant response rating, Cotton (cotton [1]; POSTEMERGENCE): 100
- Plant response rating (0 to 100), Cotton (cotton [1]; POSTEMERGENCE, Rate 1 g/ha): 70
- Plant response rating (0 to 100), Cotton (cotton [1]; POSTEMERGENCE, Rate 4 g/ha): 95
- Plant response rating, Cotton (cotton [1]; PREEMERGENCE): 40
- Plant response rating (0 to 100), Cotton (cotton [1]; PREEMERGENCE, Rate 1 g/ha): 0
- Plant response rating (0 to 100), Cotton (cotton [1]; PREEMERGENCE, Rate 4 g/ha): 0
- Plant response rating (0 to 100), Cotton (cotton [1]; Rate 16 g/ha, POSTEMERGENCE): 100
- Plant response rating (0 to 100), Cotton (cotton [1]; Rate 16 g/ha, PREEMERGENCE): 0
- Plant response rating, Cheatgrass (cheatgrass; POSTEMERGENCE, Rate 10 g/ha): 5
- Plant response rating, Cheatgrass (cheatgrass; POSTEMERGENCE, Rate 50 g/ha): 7
- Plant response rating, Cheatgrass (cheatgrass; PREEMERGENCE, Rate 10 g/ha): 1
- Plant response rating, Cheatgrass (cheatgrass; PREEMERGENCE, Rate 50 g/ha): 3
- Plant response rating, Cotton (cotton [2]; POSTEMERGENCE, Rate 10 g/ha): 10
- Plant response rating, Cotton (cotton [2]; POSTEMERGENCE, Rate 50 g/ha): 10
- Plant response rating, Cotton (cotton [2]; PREEMERGENCE, Rate 10 g/ha): 1
- Plant response rating, Cotton (cotton [2]; PREEMERGENCE, Rate 50 g/ha): 2
- Plant response rating, Crabgrass (crabgrass; POSTEMERGENCE, Rate 10 g/ha): 2
- Plant response rating, Crabgrass (crabgrass; POSTEMERGENCE, Rate 50 g/ha): 3
- Plant response rating, Crabgrass (crabgrass; PREEMERGENCE, Rate 10 g/ha): 0
- Plant response rating, Crabgrass (crabgrass; PREEMERGENCE, Rate 50 g/ha): 0
- Plant response rating, Morningglory (morningglory; POSTEMERGENCE, Rate 10 g/ha): 9
- Plant response rating, Morningglory (morningglory; POSTEMERGENCE, Rate 50 g/ha): 9
- Plant response rating, Morningglory (morningglory; PREEMERGENCE, Rate 50 g/ha): 3
- Plant response rating, Cocklebur (cocklebur; POSTEMERGENCE, Rate 10 g/ha): 9
- Plant response rating, Cocklebur (cocklebur; POSTEMERGENCE, Rate 50 g/ha): 10
- Plant response rating, Cocklebur (cocklebur; PREEMERGENCE, Rate 10 g/ha): 0
- Plant response rating, Cocklebur (cocklebur; PREEMERGENCE, Rate 50 g/ha): 0
- Plant response rating, Giant foxtail (giant foxtail [3]; POSTEMERGENCE): 70
- Plant response rating (0 to 100), Giant foxtail (giant foxtail [3]; POSTEMERGENCE, Rate 1 g/ha): 10
- Plant response rating (0 to 100), Giant foxtail (giant foxtail [3]; POSTEMERGENCE, Rate 4 g/ha): 20
- Plant response rating, Giant foxtail (giant foxtail [3]; PREEMERGENCE): 60
- Plant response rating (0 to 100), Giant foxtail (giant foxtail [3]; PREEMERGENCE, Rate 1 g/ha): 0
- Plant response rating (0 to 100), Giant foxtail (giant foxtail [3]; PREEMERGENCE, Rate 4 g/ha): 0
- Plant response rating (0 to 100), Giant foxtail (giant foxtail [3]; Rate 16 g/ha, POSTEMERGENCE): 40
- Plant response rating (0 to 100), Giant foxtail (giant foxtail [3]; Rate 16 g/ha, PREEMERGENCE): 0
- Plant response rating (0 to 100), Umbrella sedge (umbrella sedge; [5]): 0
- Plant response rating (0 to 100), Umbrella sedge (umbrella sedge; [6]): 0
- Plant response rating (0 to 100), Umbrella sedge (umbrella sedge; [7]): 10
- Plant response rating Umbrella sedge (umbrella sedge; [8]): 70
- Plant response rating, Rape (rape; POSTEMERGENCE, Rate 10 g/ha): 10
- Plant response rating, Rape (rape; POSTEMERGENCE, Rate 50 g/ha): 10
- Plant response rating, Rape (rape; PREEMERGENCE, Rate 50 g/ha): 6
- Plant response rating Lambsquarters (lambsquarters; POSTEMERGENCE): 100
- Plant response rating (0 to 100), Lambsquarters (lambsquarters; POSTEMERGENCE, Rate 1 g/ha): 10
- Plant response rating (0 to 100), Lambsquarters (lambsquarters; POSTEMERGENCE, Rate 4 g/ha): 50
- Plant response rating Lambsquarters (lambsquarters; PREEMERGENCE): 100
- Plant response rating (0 to 100), Lambsquarters (lambsquarters; PREEMERGENCE, Rate 1 g/ha): 0
- Plant response rating (0 to 100), Lambsquarters (lambsquarters; PREEMERGENCE, Rate 4 g/ha): 60
- Plant response rating (0 to 100), Lambsquarters (lambsquarters; Rate 16 g/ha, POSTEMERGENCE): 75
- Plant response rating (0 to 100), Lambsquarters (lambsquarters; Rate 16 g/ha, PREEMERGENCE): 100
- Plant response rating, Bedstraw (bedstraw; POSTEMERGENCE, Rate 10 g/ha): 9
- Plant response rating, Bedstraw (bedstraw; POSTEMERGENCE, Rate 50 g/ha): 9
- Plant response rating, Bedstraw (bedstraw; PREEMERGENCE, Rate 10 g/ha): 8
- Plant response rating, Bedstraw (bedstraw; PREEMERGENCE, Rate 50 g/ha): 9
- Plant response rating, Chickweed (chickweed; POSTEMERGENCE): 100
- Plant response rating (0 to 100), Chickweed (chickweed; POSTEMERGENCE, Rate 1 g/ha): 60
- Plant response rating (0 to 100), Chickweed (chickweed; POSTEMERGENCE, Rate 4 g/ha): 75
- Plant response rating, Chickweed (chickweed; PREEMERGENCE): 100
- Plant response rating (0 to 100), Chickweed (chickweed; PREEMERGENCE, Rate 1 g/ha): 0
- Plant response rating (0 to 100), Chickweed (chickweed; PREEMERGENCE, Rate 4 g/ha): 0
- Plant response rating (0 to 100), Chickweed (chickweed; Rate 16 g/ha, POSTEMERGENCE): 100
- Plant response rating (0 to 100), Chickweed (chickweed; Rate 16 g/ha, PREEMERGENCE): 20
- Plant response rating Barley Igri (barley; POSTEMERGENCE): 50
- Plant response rating (0 to 100), Barley Igri (barley; POSTEMERGENCE, Rate 1 g/ha): 30
- Plant response rating (0 to 100), Barley Igri (barley; POSTEMERGENCE, Rate 4 g/ha): 40
- Plant response rating Barley Igri (barley; PREEMERGENCE): 10
- Plant response rating (0 to 100), Barley Igri (barley; PREEMERGENCE, Rate 1 g/ha): 0
- Plant response rating (0 to 100), Barley Igri (barley; PREEMERGENCE, Rate 4 g/ha): 0
- Plant response rating (0 to 100), Barley Igri (barley; Rate 16 g/ha, POSTEMERGENCE): 50
- Plant response rating (0 to 100), Barley Igri (barley; Rate 16 g/ha, PREEMERGENCE): 0
- Plant response rating, Velvetleaf (velvetleaf; [9]): 100
- Plant response rating (0 to 100), Velvetleaf (velvetleaf; POSTEMERGENCE, Rate 1 g/ha): 70
- Plant response rating (0 to 100), Velvetleaf (velvetleaf; POSTEMERGENCE, Rate 4 g/ha): 100
- Plant response rating (0 to 100), Velvetleaf (velvetleaf; PREEMERGENCE, Rate 1 g/ha): 0
- Plant response rating (0 to 100), Velvetleaf (velvetleaf; PREEMERGENCE, Rate 4 g/ha): 0
- Plant response rating (0 to 100), Velvetleaf (velvetleaf; Rate 16 g/ha, POSTEMERGENCE): 100
- Plant response rating (0 to 100), Velvetleaf (velvetleaf; Rate 16 g/ha, PREEMERGENCE): 80
- Plant response rating, Soybean (soybean; [9]): 95
- Plant response rating (0 to 100), Soybean (soybean; POSTEMERGENCE, Rate 1 g/ha): 50
- Plant response rating (0 to 100), Soybean (soybean; POSTEMERGENCE, Rate 4 g/ha): 65
- Plant response rating (0 to 100), Soybean (soybean; PREEMERGENCE, Rate 1 g/ha): 0
- Plant response rating (0 to 100), Soybean (soybean; PREEMERGENCE, Rate 4 g/ha): 0
- Plant response rating (0 to 100), Soybean (soybean; Rate 16 g/ha, POSTEMERGENCE): 85
- Plant response rating (0 to 100), Soybean (soybean; Rate 16 g/ha, PREEMERGENCE): 0
- Plant response rating, Giant foxtail (giant foxtail [4]; POSTEMERGENCE, Rate 10 g/ha): 4
- Plant response rating, Giant foxtail (giant foxtail [4]; POSTEMERGENCE, Rate 50 g/ha): 4
- Plant response rating, Giant foxtail (giant foxtail [4]; PREEMERGENCE, Rate 10 g/ha): 0
- Plant response rating, Giant foxtail (giant foxtail [4]; PREEMERGENCE, Rate 50 g/ha): 8
